In article PMC10247784, “Physiological activation of human and mouse bitter taste receptors by bile acids” (Communications Biology, 2023):
Where “and” joins values, the source holds several entries; their conditions need not be identical. Equal values may be shown once.

Biological target: T1, human TAS2R1 (Homo sapiens, UniProt Q9NYW7)
T1 construct: expressed in transfected cells; host or cells: HEK293T-Gα16gust44
T1 sequence (Q9NYW7 1-299): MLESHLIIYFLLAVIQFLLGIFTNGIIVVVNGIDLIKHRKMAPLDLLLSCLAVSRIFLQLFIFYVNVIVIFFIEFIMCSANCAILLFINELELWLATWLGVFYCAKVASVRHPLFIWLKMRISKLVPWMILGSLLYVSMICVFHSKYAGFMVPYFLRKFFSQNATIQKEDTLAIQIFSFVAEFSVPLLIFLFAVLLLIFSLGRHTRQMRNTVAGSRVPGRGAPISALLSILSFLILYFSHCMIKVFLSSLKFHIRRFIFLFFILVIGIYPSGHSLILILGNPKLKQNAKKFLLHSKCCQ
Experiment: Calcium imaging assay (FLIPR), HEK293T-Gα16gust44 cells transfected with human TAS2R1
Type: cell-based
Procedure, shortened: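 Read-out is Fluo-4 fluorescence change (ΔF/F) after automated application of bile acids (DMSO stocks) to transiently transfected cells. Values are corrected for empty-vector cells and normalized to buffer. Dose-response from three independent experiments in duplicate; threshold concentration set at p < 0.01 versus mock.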

Efficacy = maximal amplitude (ΔF/F) (TAS2R1, bile acids, mean): 0.1101
Efficacy (maximal amplitude ΔF/F), individual data points (TAS2R1, bile acids, single replicates, listed as DCA): 0.109 and 0.1181 and 0.1032
RLU (Time 0 s (second time grid)): 0 RLU
RLU (Time 2 s): 0.493 RLU
RLU (Time 4 s): 31.4027 RLU
RLU (Time 6 s): 3.521 RLU
RLU (Time 8 s): -1.537 RLU
RLU (Time 12 s): 14.8432 RLU
RLU (Time 14 s): 0.09676 RLU
RLU (Time 16 s): 17.8407 RLU
RLU (Time 18 s): -2.035 RLU
RLU (Time 18.781 s): -64.4563 RLU
RLU (Time 20.781 s): -74.4446 RLU
RLU (Time 22.781 s): -47.6337 RLU
RLU (Time 24.781 s): -3.248 RLU
RLU (Time 26.781 s): 25.7142 RLU
RLU (Time 28.781 s): 115.435 RLU
RLU (Time 30.781 s): 160.244 RLU
RLU (Time 32.781 s): 224.68 RLU
RLU (Time 34.781 s): 265.794 RLU
RLU (Time 36.781 s): 285.115 RLU
RLU (Time 38.781 s): 296.049 RLU
RLU (Time 40.781 s): 331.471 RLU
RLU (Time 42.781 s): 355.405 RLU
RLU (Time 44.781 s): 351.369 RLU
RLU (Time 46.781 s): 370.806 RLU
RLU (Time 48.781 s): 359.225 RLU
RLU (Time 50.781 s): 385.526 RLU
RLU (Time 52.781 s): 383.683 RLU
RLU (Time 54.781 s): 370.149 RLU
RLU (Time 56.781 s): 369.818 RLU
RLU (Time 58.781 s): 385.269 RLU
RLU (Time 60.781 s): 378.237 RLU
RLU (Time 62.781 s): 433.32 RLU
RLU (Time 64.781 s): 415.898 RLU
RLU (Time 66.781 s): 407.815 RLU
RLU (Time 68.781 s): 409.61 RLU
RLU (Time 70.781 s): 404.287 RLU
RLU (Time 72.781 s): 403.47 RLU
RLU (Time 74.781 s): 421.511 RLU
RLU (Time 76.781 s): 407.874 RLU
RLU (Time 78.781 s): 402.577 RLU
RLU (Time 80.781 s): 400.686 RLU
RLU (Time 82.781 s): 411.74 RLU
RLU (Time 84.781 s): 413.712 RLU
RLU (Time 86.781 s): 386.975 RLU
RLU (Time 88.781 s): 406.471 RLU
RLU (Time 90.781 s): 396.647 RLU
RLU (Time 92.781 s): 377.402 RLU
RLU (Time 94.781 s): 398.73 RLU
RLU (Time 96.781 s): 400.692 RLU
RLU (Time 98.781 s): 408.833 RLU
RLU (Time 100.781 s): 412.535 RLU
RLU (Time 102.781 s): 404.992 RLU
RLU (Time 104.781 s): 431.288 RLU
RLU (Time 106.781 s): 394.532 RLU
RLU (Time 108.781 s): 409.236 RLU
RLU (Time 110.781 s): 378.853 RLU
RLU (Time 112.781 s): 368.351 RLU
RLU (Time 114.781 s): 393.07 RLU
RLU (Time 116.781 s): 389.914 RLU
RLU (Time 118.781 s): 397.129 RLU
RLU (Time 120.781 s): 358.058 RLU
RLU (Time 122.781 s): 360.498 RLU
RLU (Time 124.781 s): 357.848 RLU
RLU (Time 126.781 s): 357.113 RLU
RLU (Time 128.781 s): 380.58 RLU
RLU (Time 130.781 s): 362.729 RLU
RLU (Time 132.781 s): 375.09 RLU
RLU (Time 134.781 s): 362.515 RLU
RLU (Time 136.781 s): 330.764 RLU
RLU (Time 137.547 s): 319.55 RLU
RLU (Time 143.547 s): 341.925 RLU
RLU (Time 149.547 s): 313.832 RLU
RLU (Time 155.547 s): 317.65 RLU
RLU (Time 161.547 s): 302.763 RLU
RLU (Time 167.547 s): 279.035 RLU
RLU (Time 173.547 s): 260.648 RLU
RLU (Time 179.547 s): 266.358 RLU
RLU (Time 185.547 s): 253.1 RLU
RLU (Time 191.547 s): 247.046 RLU
RLU (Time 197.547 s): 220.468 RLU
RLU (Time 203.547 s): 236.267 RLU
RLU (Time 209.547 s): 247.998 RLU
RLU (Time 215.547 s): 197.659 RLU
RLU (Time 221.547 s): 234.297 RLU
RLU (Time 227.547 s): 187.946 RLU
RLU (Time 233.547 s): 202.574 RLU
RLU (Time 239.547 s): 164.983 RLU
RLU (Time 245.547 s): 168.248 RLU
RLU (Time 293.547 s): 151.715 RLU
RLU (Time 299.547 s): 145.558 RLU
RLU (calcium trace, sheet TAS2R1, Time 305.547 s): 138.546 RLU
RLU (calcium trace, sheet TAS2R1, Time 311.547 s): 132.623 RLU
RLU (calcium trace, sheet TAS2R1, Time 317.547 s): 129.733 RLU
RLU (calcium trace, sheet TAS2R1, Time 323.547 s): 134.84 RLU
RLU (calcium trace, sheet TAS2R1, Time 329.547 s): 140.029 RLU
RLU (calcium trace, sheet TAS2R1, Time 335.547 s): 144.9 RLU
RLU (calcium trace, sheet TAS2R1, Time 341.547 s): 152.792 RLU
RLU (calcium trace, sheet TAS2R1, Time 347.547 s): 132.414 RLU
RLU (calcium trace, sheet TAS2R1, Time 353.547 s): 137.138 RLU
RLU (calcium trace, sheet TAS2R1, Time 359.547 s): 131.392 RLU
EC50 (calculated where receptor saturation was reached): 6.1 ± 0.6 µM
Activation threshold concentration TAS2R1 (lowest concentration with significantly increased fluorescence vs empty vector (p < 0.01)): 3 µM and 3.00 µM
SMILES: C[C@H](CCC(=O)O)[C@H]1CC[C@H]2[C@@H]3CC[C@@H]4C[C@H](O)CC[C@]4(C)[C@H]3C[C@H](O)[C@]12C [Deoxycholic Acid, deoxycholic acid]
